Measurements taken from ChEMBL document CHEMBL1201862, “PubChem BioAssay data set” (2004).
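48-hour exposure; five concentrations; linearly interpolated endpoints. Abbreviation: GI50, concentration required for 50% inhibition of growth.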 Active and inactive are the calls of the source. Cut-off read from the data, not from the text of the source: active = GI50 up to about 1.1 µM and inactive = higher.

Assays:
Test in all cases: NCI anticancer screen, dose series, 48 h
UO-31 = test system: UO-31
COLO 205 = test system: COLO 205
A498 = test system: A498
Hs-578T = test system: Hs-578T
RPMI-8226 = test system: RPMI-8226
PC-3 = test system: PC-3
IGROV-1 = test system: IGROV-1
KM12 = test system: KM12
SF-295 = test system: SF-295
OVCAR-4 = test system: OVCAR-4
SR = test system: SR
K562 = test system: K562
MDA-MB-435 = test system: MDA-MB-435
SN12C = test system: SN12C
HOP-92 = test system: HOP-92
MCF7 = test system: MCF7
NCI-H460 = test system: NCI-H460
OVCAR-8 = test system: OVCAR-8
SK-OV-3 = test system: SK-OV-3
U-251 = test system: U-251
MOLT-4 = test system: MOLT-4
TK-10 = test system: TK-10
ACHN = test system: ACHN
SK-MEL-2 = test system: SK-MEL-2
SK-MEL-28 = test system: SK-MEL-28
NCI/ADR-RES = test system: NCI/ADR-RES
SNB-19 = test system: SNB-19
M14 = test system: M14
Malme-3M = test system: Malme-3M
SF-268 = test system: SF-268
HCC 2998 = test system: HCC 2998
SW-620 = test system: SW-620
HL-60 = test system: HL-60
BT-549 = test system: BT-549
UACC-257 = test system: UACC-257
NCI-H226 = test system: NCI-H226
MDA-N = test system: MDA-N
DU-145 = test system: DU-145
A549 = test system: A549
HCT-15 = test system: HCT-15
UACC-62 = test system: UACC-62
LOX IMVI = test system: LOX IMVI
MDA-MB-231 = test system: MDA-MB-231
OVCAR-5 = test system: OVCAR-5
HOP-62 = test system: HOP-62
RXF 393 = test system: RXF 393
NCI-H522 = test system: NCI-H522
HCT-116 = test system: HCT-116
786-0 = test system: 786-0
SK-MEL-5 = test system: SK-MEL-5
SNB-75 = test system: SNB-75
NCI-H23 = test system: NCI-H23
T47D = test system: T47D
CCRF-CEM = test system: CCRF-CEM
EKVX = test system: EKVX
CAKI-1 = test system: CAKI-1
HT-29 = test system: HT-29
SF-539 = test system: SF-539
OVCAR-3 = test system: OVCAR-3
KM-20L2 = test system: KM-20L2
DLD-1 = test system: DLD-1
M19-MEL = test system: M19-MEL
DMS-114 = test system: DMS-114
SNB-78 = test system: SNB-78
DMS-273 = test system: DMS-273
HOP-18 = test system: HOP-18

Measured: GI50

CC(C)(Cl)C(Cl)CC/C(CBr)=C(\Cl)CCl (configuration not stated)
active: SR 0.485 µM | K562 0.678 µM | MOLT-4 0.491 µM | HL-60 0.582 µM | LOX IMVI 0.406 µM | NCI-H522 0.658 µM | CCRF-CEM 0.294 µM
1.97 µM: HCT-15
inactive: UO-31 6.53 µM | COLO 205 4.89 µM | A498 19.4 µM | Hs-578T 5.32 µM | RPMI-8226 1.89 µM | PC-3 7.31 µM | IGROV-1 2.04 µM | KM12 7.01 µM | SF-295 16.3 µM | OVCAR-4 2.79 µM | MDA-MB-435 3.36 µM | SN12C 3.52 µM | HOP-92 10.4 µM | MCF7 11 µM | NCI-H460 12.7 µM | OVCAR-8 3.17 µM | SK-OV-3 6 µM | U-251 4.24 µM | TK-10 14.1 µM | ACHN 14.9 µM | SK-MEL-2 2.47 µM | SK-MEL-28 2.92 µM | NCI/ADR-RES 5.81 µM | SNB-19 17.6 µM | M14 1.81 µM | Malme-3M 6.85 µM | SF-268 7.8 µM | HCC 2998 14.4 µM | SW-620 1.96 µM | BT-549 1.84 µM | UACC-257 3.25 µM | NCI-H226 4.69 µM | MDA-N 2.21 µM | DU-145 13.4 µM | A549 18 µM | UACC-62 1.67 µM | MDA-MB-231 2.57 µM | OVCAR-5 14.7 µM | HOP-62 11.8 µM | RXF 393 10.6 µM | HCT-116 3.93 µM | 786-0 2.55 µM | SK-MEL-5 2.31 µM | SNB-75 4.45 µM | NCI-H23 3.87 µM | T47D 1.82 µM | EKVX 17.7 µM | CAKI-1 5.09 µM | HT-29 2.82 µM | SF-539 4.86 µM | OVCAR-3 4.48 µM

c1ccncc1
inactive: UO-31 > 100 µM | COLO 205 > 100 µM | A498 > 100 µM | RPMI-8226 > 100 µM | IGROV-1 > 100 µM | KM12 > 100 µM | SF-295 > 100 µM | OVCAR-4 > 100 µM | K562 > 100 µM | HOP-92 > 100 µM | NCI-H460 > 100 µM | OVCAR-8 > 100 µM | SK-OV-3 > 100 µM | U-251 > 100 µM | MOLT-4 > 100 µM | TK-10 > 100 µM | SK-MEL-2 > 100 µM | SK-MEL-28 > 100 µM | SNB-19 > 100 µM | M14 > 100 µM | HCC 2998 > 100 µM | SW-620 > 100 µM | HL-60 > 100 µM | UACC-257 > 100 µM | UACC-62 > 100 µM | OVCAR-5 > 100 µM | HOP-62 > 100 µM | RXF 393 > 100 µM | NCI-H522 > 100 µM | HCT-116 > 100 µM | 786-0 > 100 µM | SK-MEL-5 > 100 µM | SNB-75 > 100 µM | CCRF-CEM > 100 µM | EKVX > 100 µM | CAKI-1 > 100 µM | HT-29 > 100 µM | OVCAR-3 > 100 µM | KM-20L2 > 100 µM

COC1(OC)C=CC(=O)C=C1
active: SR 0.843 µM | Malme-3M < 0.01 µM | LOX IMVI 0.667 µM | RXF 393 0.701 µM | NCI-H522 0.149 µM | CCRF-CEM 0.446 µM
4.17 µM: HCT-15
inactive: UO-31 1.89 µM | COLO 205 7.69 µM | A498 32.6 µM | Hs-578T 9.84 µM | RPMI-8226 2.74 µM | PC-3 3.27 µM | IGROV-1 1.72 µM | KM12 7.52 µM | SF-295 11 µM | OVCAR-4 3.05 µM | K562 2.2 µM | MDA-MB-435 3.31 µM | SN12C 7.48 µM | HOP-92 4.43 µM | MCF7 1.3 µM | NCI-H460 6.61 µM | OVCAR-8 1.83 µM | SK-OV-3 13 µM | U-251 1.78 µM | MOLT-4 2.33 µM | TK-10 2.69 µM | ACHN 2.54 µM | SK-MEL-2 6.81 µM | SK-MEL-28 1.85 µM | NCI/ADR-RES 4.2 µM | SNB-19 15.7 µM | M14 3.3 µM | SF-268 4.09 µM | HCC 2998 3.68 µM | SW-620 1.45 µM | HL-60 3.15 µM | BT-549 3.55 µM | UACC-257 2.4 µM | NCI-H226 2.61 µM | MDA-N 7.41 µM | DU-145 3.48 µM | A549 5.85 µM | UACC-62 1.82 µM | MDA-MB-231 2.9 µM | OVCAR-5 10.4 µM | HOP-62 10.6 µM | HCT-116 1.3 µM | 786-0 1.9 µM | SK-MEL-5 2.8 µM | SNB-75 11 µM | NCI-H23 2.66 µM | T47D 3.22 µM | EKVX 6.78 µM | CAKI-1 3.61 µM | HT-29 3.11 µM | SF-539 1.74 µM | OVCAR-3 4.2 µM

C/C(=C\CC[C@]1(C)OC(C)(C)OC1CC/C(C)=C/CO[Si](c1ccccc1)(c1ccccc1)C(C)(C)C)CC/C=C/CO[Si](C)(C)C(C)(C)C (some centres not stated)
> 100 µM: HCT-15
inactive: DLD-1 > 100 µM | UO-31 > 100 µM | A498 > 100 µM | RPMI-8226 > 100 µM | IGROV-1 > 100 µM | KM12 > 100 µM | M19-MEL > 100 µM | SF-295 > 100 µM | OVCAR-4 > 100 µM | K562 > 100 µM | SN12C > 100 µM | HOP-92 > 100 µM | NCI-H460 > 100 µM | DMS-114 > 100 µM | OVCAR-8 > 100 µM | SK-OV-3 > 100 µM | U-251 > 100 µM | MOLT-4 > 100 µM | TK-10 > 100 µM | ACHN > 100 µM | SK-MEL-2 > 100 µM | SK-MEL-28 > 100 µM | SNB-78 > 100 µM | SNB-19 > 100 µM | DMS-273 > 100 µM | M14 > 100 µM | Malme-3M > 100 µM | SF-268 > 100 µM | HCC 2998 > 100 µM | SW-620 > 100 µM | HL-60 > 100 µM | UACC-257 > 100 µM | NCI-H226 > 100 µM | A549 > 100 µM | UACC-62 > 100 µM | LOX IMVI > 100 µM | OVCAR-5 > 100 µM | HOP-62 > 100 µM | RXF 393 > 100 µM | NCI-H522 > 100 µM | HCT-116 > 100 µM | 786-0 > 100 µM | SK-MEL-5 > 100 µM | SNB-75 > 100 µM | NCI-H23 > 100 µM | CCRF-CEM > 100 µM | EKVX > 100 µM | CAKI-1 > 100 µM | HT-29 > 100 µM | SF-539 > 100 µM | OVCAR-3 74.5 µM | KM-20L2 > 100 µM

C[C@]12CC[C@@H]3c4ccc(OC(=O)N(CCCl)CCCl)cc4CC[C@H]3[C@@H]1CC[C@@H]2O [ESTRAMUSTINE]
inactive: U-251 1.78 µM | DMS-273 2.5 µM | HOP-18 6.04 µM
0.025 µM: HCT-15
active: DLD-1 0.025 µM | IGROV-1 0.025 µM | M19-MEL 0.025 µM | K562 0.025 µM | SN12C 0.025 µM | HOP-92 0.025 µM | MCF7 0.025 µM | OVCAR-8 0.025 µM | SK-OV-3 0.025 µM | SK-MEL-28 0.025 µM | SNB-78 0.025 µM | SNB-19 0.025 µM | SF-268 0.025 µM | SW-620 0.025 µM | HL-60 0.025 µM | A549 0.025 µM | OVCAR-5 0.025 µM | HOP-62 0.025 µM | NCI-H23 0.025 µM | CCRF-CEM 0.025 µM | EKVX 0.025 µM | CAKI-1 0.025 µM | HT-29 0.025 µM
